Assay results published in the supplement of paper PMC13380429.

What was measured:
Settings in all cases: 72 h
Vero E6 [1] = test: cell viability relative to DMSO; higher = less toxic
HepG2 [2] = test: as above
U2OS [3] = test: as above
Caco-2 [4] = test: as above
Calu-3 [5] = test: as above
Vero E6 [6] = test: relative viability EC50 (midpoint between 100% and the lowest measured viability); higher = less toxic
HepG2 [7] = test: as above
U2OS [8] = test: as above
Caco-2 [9] = test: as above
Vero E6 [10] = test: drug sensitivity score (DSS) for viability; higher = more toxic; extreme values may be limits of the assay
HepG2 [11] = test: as above
U2OS [12] = test: as above
Caco-2 [13] = test: as above
Calu-3 [14] = test: as above
Calu-3 [15] = test: relative viability EC50 (midpoint between 100% and the lowest measured viability); higher = less toxic

| SMILES | cell viability (Vero E6 [1]; 1 nM) [%] | cell viability (Vero E6 [1]; 10 nM) [%] | cell viability (Vero E6 [1]; 100 nM) [%] | cell viability (Vero E6 [1]; 1000 nM) [%] | cell viability (Vero E6 [1]; 10000 nM) [%] | cell viability (HepG2 [2]; 1 nM) [%] | cell viability (HepG2 [2]; 10 nM) [%] | cell viability (HepG2 [2]; 100 nM) [%] | cell viability (HepG2 [2]; 1000 nM) [%] | cell viability (HepG2 [2]; 10000 nM) [%] | cell viability (U2OS [3]; 1 nM) [%] | cell viability (U2OS [3]; 10 nM) [%] | cell viability (U2OS [3]; 100 nM) [%] | cell viability (U2OS [3]; 1000 nM) [%] | cell viability (U2OS [3]; 10000 nM) [%] | cell viability (Caco-2 [4]; 1 nM) [%] | cell viability (Caco-2 [4]; 10 nM) [%] | cell viability (Caco-2 [4]; 100 nM) [%] | cell viability (Caco-2 [4]; 1000 nM) [%] | cell viability (Caco-2 [4]; 10000 nM) [%] | cell viability (Calu-3 [5]; 1 nM) [%] | cell viability (Calu-3 [5]; 10 nM) [%] | cell viability (Calu-3 [5]; 100 nM) [%] | cell viability (Calu-3 [5]; 1000 nM) [%] | cell viability (Calu-3 [5]; 10000 nM) [%] | relative viability EC50 (Vero E6 [6]) [µM] | relative viability EC50 (HepG2 [7]) [µM] | relative viability EC50 (U2OS [8]) [µM] | relative viability EC50 (Caco-2 [9]) [µM] | drug sensitivity score (Vero E6 [10]) | drug sensitivity score (HepG2 [11]) | drug sensitivity score (U2OS [12]) | drug sensitivity score (Caco-2 [13]) | drug sensitivity score (Calu-3 [14]) | relative viability EC50 (Calu-3 [15]) [µM] |
| --- | --- | --- | --- | --- | --- | --- | --- | --- | --- | --- | --- | --- | --- | --- | --- | --- | --- | --- | --- | --- | --- | --- | --- | --- | --- | --- | --- | --- | --- | --- | --- | --- | --- | --- | --- |
| COC(=O)Nc1nc2cc(SC(C)C)ccc2[nH]1 [methiazole] | 91.9 | 103 | 92.6 | 86.6 | 47.5 | 95 | 105 | 95.7 | 83.4 | 35 | 101 | 97.6 | 99.9 | 86.4 | 41.1 | 104 | 100 | 99.1 | 86.8 | 49 | 95.5 | 97 | 103 | 81.6 | 64.6 | 1.61 | 1.53 | 1.62 | 1.52 | 4.7 | 6.1 | 5.4 | 4.8 | 4 | – |
| CCC(CC)Nc1nc(C)c(-c2ccc(OC(F)(F)F)cc2OC)nc1OC [NGD-98-2] | 99.9 | 104 | 100 | 99.1 | 99.2 | 102 | 98.8 | 90.8 | 100 | 96.3 | 98.7 | 98.5 | 95.1 | 99.3 | 97.7 | 94.8 | 92.9 | 96.3 | 90.9 | 81.6 | – | – | – | – | – | > 10 | > 10 | > 10 | > 10 | 0 | 0 | 0 | 0.6 | – | – |
| CN(C)C(=O)Oc1cccc([N+](C)(C)C)c1 [neostigmine] | 91.1 | 93.1 | 90.6 | 94.8 | 112 | – | – | – | – | – | 97.8 | 95.7 | 102 | 97.9 | 100 | 97.2 | 91.9 | 100 | 93.7 | 99.2 | – | – | – | – | – | > 10 | – | > 10 | > 10 | 0 | – | 0 | 0 | – | – |
| CSc1nc2ccc3nc(NC(=O)C(c4ccccc4)c4ccccc4)sc3c2s1 [Gue-1654] | 104 | 107 | 99.6 | 97.8 | 105 | 96.4 | 106 | 98.3 | 102 | 92.6 | 100 | 95.9 | 98.8 | 97.1 | 98.2 | 100 | 100 | 94.7 | 93.6 | 80.5 | – | – | – | – | – | > 10 | > 10 | > 10 | > 10 | 0 | 0 | 0 | 0.7 | – | – |
| CC(C)(O)C(=O)N1CCN(c2ccc(C(F)(F)F)c(C3=C(c4c[nH]c5ccccc45)C(=O)NC3=O)c2)CC1 | 102 | 97.7 | 96.9 | 104 | 29.5 | 101 | 96.5 | 103 | 107 | 7.5 | 99.6 | 95.8 | 103 | 102 | 35.6 | 92.7 | 95.5 | 95.7 | 105 | 51.1 | 102 | 93.2 | 106 | 117 | 46.2 | 3.46 | 3.57 | 3.35 | – | 3.6 | 4.6 | 3.3 | 2.2 | 2.1 | 4.17 |
| O=c1c(O)c(-c2ccc(O)cc2)oc2cc(O)cc(O)c12 [kaempferol] | 101 | 104 | 98.5 | 102 | 103 | 93.8 | 86.9 | 106 | 97.5 | 94.1 | 98.2 | 99.6 | 97 | 96.7 | 101 | 98.5 | 99.9 | 97.5 | 95.9 | 82.4 | – | – | – | – | – | > 10 | > 10 | > 10 | > 10 | 0 | 0 | 0 | 0.9 | – | – |
| O=[N+]([O-])O[C@@H]1CO[C@H]2[C@@H]1OC[C@@H]2O [isosorbide-mononitrate] | 103 | 103 | 101 | 104 | 94.4 | 101 | 108 | 91.2 | 98.7 | 93.3 | 96.5 | 96.8 | 93.5 | 96.7 | 97.2 | 100 | 111 | 94.4 | 117 | 114 | – | – | – | – | – | > 10 | > 10 | > 10 | > 10 | 0 | 0 | 0 | 0 | – | – |
| O=C1c2ccc(Nc3ccc(F)cc3F)cc2CCc2ccc(OC[C@H](O)CO)cc21 [skepinone-L] | 103 | 103 | 86.8 | 89.4 | 80.3 | 102 | 109 | 98.8 | 101 | 75.2 | 96.5 | 91.8 | 91.4 | 90.2 | 89.5 | 103 | 84.1 | 89.2 | 91.7 | 73.4 | 97.2 | 94 | 96.2 | 101 | 94.7 | > 10 | > 10 | > 10 | – | 1.9 | 0.8 | 0.1 | 2.5 | 0 | > 10 |
| Cn1c(=O)cnn(CCCCN2CCN(c3ncccn3)CC2)c1=O | – | – | – | – | – | 111 | 114 | 95.2 | 116 | 106 | 103 | 97.1 | 103 | 97.8 | 103 | – | – | – | – | – | 111 | 91.3 | 102 | 120 | 103 | – | > 10 | > 10 | – | – | 0 | 0 | – | 0 | > 10 |
| CC(C)(NS(=O)(=O)c1ccc(Oc2ccc(F)cc2)cc1)C(=O)NO | – | – | – | – | – | 110 | 111 | 98.3 | 110 | 80.7 | – | – | – | – | – | – | – | – | – | – | 106 | 96.3 | 98.9 | 97.9 | 94.3 | – | > 10 | – | – | – | 0.3 | – | – | 0 | > 10 |
| C=C(C)[C@@H]1CC=C(CO)CC1 [perillyl-alcohol] | 98 | 102 | 98 | 95.5 | 96 | 101 | 93.2 | 108 | 94.5 | 92.9 | 105 | 98.2 | 98.8 | 95.6 | 98.5 | 99 | 99.6 | 102 | 102 | 98.6 | – | – | – | – | – | > 10 | > 10 | > 10 | > 10 | 0 | 0 | 0 | 0 | – | – |
| CNC(=O)[C@H](Cc1ccccc1)NC(=O)[C@H](CC(C)C)[C@H](CSc1cccs1)C(=O)NO [batimastat] | 93.4 | 97.7 | 92.3 | 84.4 | 83.8 | 98.2 | 95.6 | 99 | 90.9 | 93.6 | 94.3 | 105 | 97 | 98.4 | 90.1 | 94.1 | 105 | 92.8 | 94.2 | 85 | 92.9 | 96.2 | 89.4 | 82.9 | 65.5 | > 10 | > 10 | > 10 | > 10 | 1.4 | 0 | 0 | 0.3 | 3.8 | – |
| CN(C)C1CCN(C(=O)c2ccc(NC(=O)Nc3ccc(-c4nc(N5CCOCC5)nc(N5CCOCC5)n4)cc3)cc2)CC1 | 94.2 | 100 | 89.3 | 90.7 | 107 | 98.5 | 108 | 95.8 | 100 | 84.3 | 97.7 | 97.8 | 100 | 92.1 | 79.7 | 93.8 | 93.7 | 102 | 87.1 | 66.7 | 105 | 90.5 | 87.2 | 65.6 | 35.5 | > 10 | > 10 | > 10 | – | 0 | 0.3 | 1.5 | 3.3 | 8.3 | 0.635 |
| C[S+](CC[C@H](N)C(=O)O)C[C@H]1O[C@@H](n2cnc3c(N)ncnc32)[C@H](O)[C@@H]1O (stereo partly specified) [ademetionine] | 99.8 | 104 | 103 | 108 | 92.2 | 94.7 | 105 | 89.9 | 91.4 | 91.3 | 100 | 97.9 | 98.5 | 98 | 106 | – | – | – | – | – | 106 | 106 | 105 | 99.8 | 96.3 | > 10 | > 10 | > 10 | – | 0 | 0 | 0 | – | 0 | > 10 |
| CC(C)c1cc(C(C)C)c(CC(=O)NS(=O)(=O)Oc2c(C(C)C)cccc2C(C)C)c(C(C)C)c1 [avasimibe] | 100 | 94.8 | 93.2 | 94.4 | 81 | 102 | 108 | 106 | 97.6 | 79.4 | 97.6 | 98.7 | 95.4 | 99.7 | 92.3 | 90.3 | 96.3 | 91 | 106 | 72.3 | 92.2 | 104 | 99.1 | 98.8 | 102 | > 10 | > 10 | > 10 | – | 0.6 | 1 | 0 | 0.8 | 0 | > 10 |
| Nc1nc(=O)c(Br)c(-c2ccccc2)[nH]1 [bropirimine] | 94.8 | 98.3 | 92.4 | 98.7 | 102 | 102 | 118 | 92.4 | 103 | 114 | 92.8 | 95.1 | 102 | 95.7 | 104 | 96.6 | 91.4 | 102 | 87.8 | 112 | – | – | – | – | – | > 10 | > 10 | > 10 | > 10 | 0 | 0 | 0 | 0 | – | – |
